The structures appear in SMILES notation.

Type in all cases: physicochemical
Data set [1] in a line: Wetting properties: contact angle of a droplet of max load product on parafilm layer. As to conditions: droplet on hydrophobic parafilm, read by eye. The method, then:
A visual test was used to determine the wetting property. FIG. 2 is an illustration of the test. A small droplet 11 of the max load product mentioned above was deposited by a syringe pointed vertically down onto a parafilm layer 10, which is hydrophobic. A profile picture of the droplet 11 was then captured by a camera. The approximate contact angle 13 of the droplet 11 with the parafilm layer 10 was then measured by eye using a protractor.
The wetting angle determines the surface energy or chemical affinity of the salt solution with the apolar reference material. A high wetting angle indicates a […] of hydrophobic surfaces.
(§1) Several amine herbicide formulations were prepared as described above in Examples 1 and 2. The viscosity of various formulations was measured using a Brookfield viscometer with nr.87 spindle at 20° C. Wettability was measured by visually measuring the contact angle after placing a standard droplet on a parafilm layer (hydrophobic).

The nature of data set [2]: Viscosity of max load amine salt solutions (Brookfield viscometer, nr. 87 spindle). As to conditions: 20° C. The procedure:
The viscosity of the solutions prepared as above was determined using the Brookfield nr. 87 spindle. The applied speed depended on the viscosity of the sample. The torque applied was 50-80% of the machine's maximum. The results are expressed as mPa.
as §1

Data set [3] in a line: Maximum loading of herbicide amine salt in water (Karl-Fischer water content, HCl titration of amine). The following applies: for Max Load amine g/L: amine in maximum loaded solution in water; for Max Load g ae/L: maximum loaded solution in water, acid equivalent of herbicide; for maximum loading: summary text b115. The text has this:
Neutralizing acidic herbicides (e.g., 2,4-D, dicamba, glyphosate, glufosinate) with amines can result in the formation of highly water soluble salts. However, practical inconveniences may occur when adding liquid amines to the solid herbicides, such as the formation of wetted powder, poorly mixed slurries, two apparently non-mixed layers, etc. To efficiently prepare a salt, the method, shown as a flowchart in FIG. 1, has been developed.
Referring to FIG. 1, step 100 involves using a mass balance to weigh 25 g of the active ingredient (a solid acidic herbicide, such as 2,4-D or dicamba) in a glass bottle. An equimolar amount of a basic amine (typically a liquid) is added to this glass bottle. Last, 2 mL of water is added. After adding the three compounds, the bottle is capped and placed on a shaking device for at least 12 hours.
At step 109, theoretical neutralization has taken place. The salt concentration can be quantified by titration. To confirm that the solid layer is solid salt and the top layer is a saturated (max. loading) solution, a small amount of water is added (the amounts of water should be small enough to avoid a complete dissolution of the solid salt). After re-equilibrium during at least 12 hours of shaking, and under the condition that two phases are still present, the salt concentration is determined again. If salt concentrations are identical as the original values, then it can be concluded that a maximum loaded solution was obtained.
To determine maximum loading of the salt in water, the method shown in the flowchart of FIG. 1 was used. The resulting sample contained at least two layers: a top layer of liquid and a bottom layer of solid salt. A water and amine determination was made of the top layer.
To check the water content, a well-established method of Karl-Fischer was used. This method gives an accurate wt % of H2O in the sample.
To determine the amine content, HCl-titration was used. HCl (0.1 N) was used as the titrant, and methanol was used as the solvent. 100-400 mg of the sample was taken from the liquid layer so that only 10-20 mL of the titrant was needed. The result was given in an EP. The following calculation was used to obtain the amine wt %:
In general, the sample's liquid phase only contains three components: water, free amine, and the herbicide salt. Therefore, the following calculation was used to determine the salt wt %:
wt %salt=100−wt %amine−wt %water
The results below are reported in g a.e./L (acid equivalent). […] The results were calculated using the following equation: […]
The MMs in the equation above are molecular weights (g/mol). ρ is the density of the liquid (g/mL), which may be measured using the density meter Anton Paar DMA 4500. F is a factor that takes into account the amount of base or acid groups on the amine or acid, respectively.
The g amine/L reported below was calculated using the following equation: […]
25.02 g of dicamba herbicide was mixed with 4.16 g of 1,2-DAP and 5.88 g of water. The ingredients were shaken for a minimum of 24 hours at room temperature (20° C.) to obtain an oversaturated salt solution (with precipitated salt crystals). Theoretically, 1 mol of dicamba can be neutralized using 0.5 mol of 1,2-DAP. Water was gradually added until all the salt crystals were dissolved to form a maximum loaded clear solution. The loading of the active ingredient was determined based on the amine content by HCl titration and the water content by Karl-Fischer.
Using the same methodology as described in Example 1, high-loaded 2,4-D salt solutions were prepared.

[4] abbreviates: dicamba amine salt concentrates.
[5] abbreviates: dicamba amine salts, room temperature (20° C.).

As for `CNC.O=C(O)COc1ccc(Cl)cc1Cl` [2,4-D DMA salt, reference compound], the “Wetting Angle” value in data set [1] (2,4-D amine salts) amounted to 130 °. Besides, in data set [2] (2,4-D amine salts), the Viscosity is reported as 38.8 mPa. In data set [3] (2,4-D amine salts), the “Max Load amine g/L” value is recorded as 264.4 amine g/L and the “Max Load g ae/L” value is listed as 936.1 g ae/L.

In the case of `CN(C)CCO.COc1c(Cl)ccc(Cl)c1C(=O)O` [Dicamba DMAE salt], the “Wetting Angle” value in data set [1] (setting [4]) is on record as 115 °. Besides, the Viscosity in data set [2] (setting [4]) was found to be 184.4 mPa. The “Max Load amine g/L” value in data set [3] (dicamba amine salts) is recorded as 408.3 amine g/L. In data set [3] (setting [5]), the “Max Load g ae/L” value came to 849.0 g ae/L.

`C[N+](C)(C)CCO.O=C([O-])COc1ccc(Cl)cc1Cl` [2,4-D Cbase salt, reference compound]: the “Wetting Angle” value in data set [1] (2,4-D amine salts) worked out at 145 °. Besides, the Viscosity in data set [2] (2,4-D amine salts) turned out to be 12.4 mPa. Further, in data set [3] (2,4-D amine salts), the “Max Load amine g/L” value came to 315.6 amine g/L and the “Max Load g ae/L” value came out at 195.0 g ae/L.

As for `CC(C)CN.COc1c(Cl)ccc(Cl)c1C(=O)O` [Dicamba MIBA salt], in data set [1] (setting [4]), the “Wetting Angle” value is 130 °. Also, the Viscosity in data set [2] (setting [4]) amounted to 46.1 mPa. In data set [3] (dicamba amine salts), the “Max Load amine g/L” value is given as 475.0 amine g/L. In addition, the “Max Load g ae/L” value in data set [3] (setting [5]) turned out to be 713.7 g ae/L.

Regarding `CNCCO.O=C(O)COc1ccc(Cl)cc1Cl` [2,4-D MMEA salt], the “Wetting Angle” value in data set [1] (2,4-D amine salts) was 110 °. For the same compound, the Viscosity in data set [2] (2,4-D amine salts) is 21.2 mPa. Also, in data set [3] (2,4-D amine salts), the “Max Load amine g/L” value is 302.5 amine g/L and the “Max Load g ae/L” value was 774.3 g ae/L.

Consider `COc1c(Cl)ccc(Cl)c1C(=O)O.NCCOCCO` [Dicamba DGA salt, reference compound], for which the “Wetting Angle” value in data set [1] (setting [4]) was 120 °. Besides, the Viscosity in data set [2] (setting [4]) amounted to 562.5 mPa. For the same compound, in data set [3] (dicamba amine salts), the “Max Load amine g/L” value is 435.5 amine g/L and the maximum loading came out at 854.9 g/L. The “Max Load g ae/L” value in data set [3] (setting [5]) was determined as 854.9 g ae/L.

With `CC(C)CN.O=C(O)COc1ccc(Cl)cc1Cl` [2,4-D MIBA salt], the “Wetting Angle” value in data set [1] (2,4-D amine salts) was determined as 155 °. Also, in data set [2] (2,4-D amine salts), the Viscosity turned out to be 60.1 mPa. Further, in data set [3] (2,4-D amine salts), the “Max Load amine g/L” value was determined as 183.5 amine g/L and the “Max Load g ae/L” value is recorded as 497.8 g ae/L.

As to `CNC.COc1c(Cl)ccc(Cl)c1C(=O)O` [Dicamba DMA salt, reference compound], the “Wetting Angle” value in data set [1] (setting [4]) amounted to 135 °. For the same compound, the Viscosity in data set [2] (setting [4]) amounted to 58.8 mPa. Further, in data set [3] (dicamba amine salts), the “Max Load amine g/L” value is 211.1 amine g/L and the maximum loading turned out to be 1036 g/L. In data set [3] (setting [5]), the “Max Load g ae/L” value is given as 1036.8 g ae/L.

Regarding `CN(C)CCCN.O=C(O)COc1ccc(Cl)cc1Cl` [2,4-D DMAPA salt], in data set [1] (2,4-D amine salts), the “Wetting Angle” value was 125 °. Further, the Viscosity in data set [2] (2,4-D amine salts) was 1,455.0 mPa. In data set [3] (2,4-D amine salts), the “Max Load amine g/L” value amounted to 210.6 amine g/L and the “Max Load g ae/L” value is 863.5 g ae/L.

For `CNCCO.COc1c(Cl)ccc(Cl)c1C(=O)O` [Dicamba MMEA salt], the “Wetting Angle” value in data set [1] (setting [4]) is recorded as 120 °. Also, the Viscosity in data set [2] (setting [4]) is on record as 3,967.0 mPa. Also, in data set [3] (dicamba amine salts), the “Max Load amine g/L” value is 357.7 amine g/L. Moreover, the “Max Load g ae/L” value in data set [3] (setting [5]) is listed as 928.8 g ae/L.

`CN(C)CCO.O=C(O)COc1ccc(Cl)cc1Cl` [2,4-D DMAE salt]: the “Wetting Angle” value in data set [1] (2,4-D amine salts) is reported as 105 °. Also, in data set [2] (2,4-D amine salts), the Viscosity turned out to be 74.0 mPa. Further, in data set [3] (2,4-D amine salts), the “Max Load amine g/L” value came out at 316.9 amine g/L and the “Max Load g ae/L” value came to 624.7 g ae/L.

As for `COc1c(Cl)ccc(Cl)c1C(=O)[O-].C[N+](C)(C)CCO` [Dicamba Cbase salt], the “Wetting Angle” value in data set [1] (setting [4]) is reported as 115 °. Further, in data set [2] (setting [4]), the Viscosity was 13.5 mPa. The “Max Load amine g/L” value in data set [3] (dicamba amine salts) is on record as 308.5 amine g/L. For the same compound, the “Max Load g ae/L” value in data set [3] (setting [5]) was found to be 481.5 g ae/L.

Turning to `CC(N)CN.COc1c(Cl)ccc(Cl)c1C(=O)O.COc1c(Cl)ccc(Cl)c1C(=O)O` [Dicamba 1,2-DAP salt], the “Wetting Angle” value in data set [1] (setting [4]) was found to be 105 °. In addition, the Viscosity in data set [2] (setting [4]) was found to be 218.0 mPa. Besides, in data set [3] (dicamba 1,2-DAP salt, Example 1), the “Maximum loading, amine” value came to 365.9 g amine/L. In data set [3] (dicamba amine salts), the “Max Load amine g/L” value turned out to be 365.9 amine g/L and the maximum loading is reported as 803.2 g/L. Further, the “Max Load g ae/L” value in data set [3] (setting [5]) is 803.2 g ae/L.

Source of the values: patent publication US20180303092A1, “AMINE SALTS OF CARBOXYLIC ACID HERBICIDES” (Taminco BVBA, priority 2017, published 2018).
